Data reported in ChEMBL document CHEMBL3886955, “Pyrrolidine derivatives and their use as complement pathway modulators” (2016).

Target: Complement factor D (Homo sapiens, UniProt P00746)
Assay: In Vitro Assay: Method 1: Recombinant human factor D (expressed in E. coli and purified using standard methods) at 10 nM concentration is incubated with test compound at various concentrations for 1 hour at room temperature in 0.1 M Hepes buffer, pH 7.5, containing 1 mM MgCl2, 1 M NaCl and 0.05% CHAPS. A synthetic substrate Z-Lys-thiobenzyl and 2,4-dinitrobenzenesulfonyl-fluoresceine are added to final concentrations of 200 μM and 25 μM, respectively. The increase in fluorescence is recorded at excitation of 485 nm and emission at 535 nm in a microplate spectrofluorimeter. IC50 values are calculated from percentage of inhibition of complement factor D-activity as a function of test compound concentration.

Sequence of Complement factor D (P00746 whole entry): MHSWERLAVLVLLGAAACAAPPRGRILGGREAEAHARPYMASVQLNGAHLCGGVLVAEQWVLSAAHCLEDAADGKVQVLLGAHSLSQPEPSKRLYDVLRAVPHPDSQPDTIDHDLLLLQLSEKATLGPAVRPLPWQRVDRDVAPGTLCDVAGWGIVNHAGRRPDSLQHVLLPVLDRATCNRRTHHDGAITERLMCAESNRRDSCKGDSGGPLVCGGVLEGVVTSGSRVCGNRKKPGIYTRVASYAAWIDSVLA

## CC(C)=C(F)CNC(=O)[C@@H]1C[C@H]2C[C@H]2N1C(=O)Nc1cn(C(N)=O)c2ccccc12
  IC50: 24 nM
